# Test results from PMC9587990, “Molecular basis for isoform-selective inhibition of presenilin-1 by MRK-560” (Nature Communications, 2022).
# Several values for one entry are separate records, joined by “and”; a condition that tells them apart may be missing. Equal values may be shown once. Entries after “also recorded” stand apart in the source; their conditions may differ. Read-outs that look alike come from different tables or passages of the source.
# Experiments:
# [1] = tested on: PS1 and PS2 with swapped loop-3; experiment: in vitro cleavage assay, AICD production by western blot; assay type: biochemical, human
# Experimental: Fig. 4 Thr281 and Leu282 of PS1 determine the isoform selectivity of MRK-560. a–c Individual and double residue swapping of Thr281 and Leu282 in PS1 with the corresponding Pro287 and Ile288 in PS2 alter their respective sensitives to MRK-560 accordingly. IC50 values for MRK-560 inhibition of the indicated PS1 (a) and PS2 (b) mutants were measured using the AlphaLISA assay that detects Aβ40 production. Please refer to Methods for experimental details. Data are presented as mean values ± SD. c Production of AICD by residue-swapped PS1 and PS2 mutants. The amount of AICD generated by the indicated variants in the presence of serial diluted MRK-560 is consistent with the corresponding IC50 shown in (a, b). […] The production of AICD was quantified by ImageJ. Red asterisks indicate the first concentration where the normalized production of AICD was reduced to less than 20%. Source data are provided as a Source Data file. […]
# All proteins used for the activity assay were sub-cloned, expressed and purified as described. Protein concentration was determined using the Bradford method. […] The cleaved products of these substrates were detected using a monoclonal antibody (1:1000 dilution, CW0299, CWBio) against the C-terminal Myc tag. Aβ40 production was detected using the AlphaLISA assay (PerkinElmer) as described. The IC50 values and the inhibition curves were calculated using Prism 8.0.
# [2] = target: T1, PS2-complex (WT PS2-containing γ-secretase) (Homo sapiens, UniProt P49810); experiment: in vitro cleavage assay, Aβ40 production by AlphaLISA; assay type: biochemical; conditions: for remaining activity at 0.002 µM / remaining activity at 0.01 µM / remaining activity at 0.04 µM / remaining activity at 0.2 µM / remaining activity at 1 µM / remaining activity at 10 µM: 4 h; for remaining activity at 0.002 µM / remaining activity at 0.01 µM / remaining activity at 0.04 µM / remaining activity at 0.2 µM / remaining activity at 1 µM / remaining activity at 10 µM / Caculated Aβ40 production / raw data from α-Lisa reading: PS2 WT
# T1 construct: made in house; host or cells: mammalian cells (HEK293F is stated for the cryo-EM samples)
# Experimental: (§1) The PS1- or PS2 complexes were expressed and purified as described. To validate the inhibitory effect of MRK-560 (Fig. 1a), we reconstituted an in vitro cleavage assay using the purified PS1- or PS2 complexes. Production of Aβ40, which is the major cleavage product among the varying lengths of Aβs, and AICD, whose cleavage reflects the endopeptidase activity of γ-secretase, are measured with AlphaLISA and western blots, respectively. All proteins used for the activity assay were sub-cloned, expressed and purified as described. Protein concentration was determined using the Bradford method. […] The cleavage reaction was conducted at 37 °C for 4 h. The cleaved products of these substrates were detected using a monoclonal antibody (1:1000 dilution, CW0299, CWBio) against the C-terminal Myc tag. Aβ40 production was detected using the AlphaLISA assay (PerkinElmer) as described. The IC50 values and the inhibition curves were calculated using Prism 8.0. Statistical analysis of Aβ40 was performed using Prism 8 (GraphPad Software, San Diego, CA, USA). IC50 were determined by a four-parameter logistic regression. The statistical details can be found in Figs. 1, 4 and legends. Data are expressed as mean ± SD.
# [3] = target: T2, PS1-complex (WT PS1-containing γ-secretase) (Homo sapiens, UniProt P49768); experiment: as above; assay type: biochemical; conditions: for remaining activity at 0.002 µM / remaining activity at 0.01 µM / remaining activity at 0.04 µM / remaining activity at 0.2 µM / remaining activity at 1 µM / remaining activity at 10 µM: 4 h
# T2 construct: made in house; host or cells: mammalian cells (HEK293F is stated for the cryo-EM samples)
# Experimental: as §1
# [4] = PS1 WT, MRK-560 2 nM, replicates
# [5] = PS1 WT, MRK-560 10 nM, replicates
# [6] = PS1 WT, MRK-560 40 nM, replicates
# [7] = PS1 WT, MRK-560 200 nM, replicates
# [8] = PS1 WT, MRK-560 1 μM, replicates
# [9] = PS1 WT, MRK-560 10 μM, replicates
smiles,measurement,setting,value
"O=S(=O)(NC1CCC(c2cc(F)ccc2F)(S(=O)(=O)c2ccc(Cl)cc2)CC1)C(F)(F)F (stereo not drawn) [MRK-560, N-[cis-4-[(4-chlorophenyl)sulfonyl]-4-(2,5-difluorophenyl)cyclohexyl]-1,1,1-trifluoromethanesulfonamide]",effect of swapping loop-3 between PS1 and PS2 on sensitivity to MRK-560,[1],little influence on inhibition selectivity; also recorded: no detectable effect on the sensitivity
same,remaining activity at 0.002 µM,"[2]; MRK-560 2 nM, mean of 3 replicates, read-out: Normalized production (control=1), Mean",98.5%
same,remaining activity at 0.002 µM,"[2]; MRK-560 2 nM, replicates, read-out: Normalized production (control=1)",96.8%
same,remaining activity at 0.01 µM,"[2]; MRK-560 10 nM, mean of 3 replicates, read-out: Normalized production (control=1), Mean",93.7%
same,remaining activity at 0.01 µM,"[2]; MRK-560 10 nM, replicates, read-out: Normalized production (control=1)",96.7%
same,remaining activity at 0.04 µM,"[2]; MRK-560 40 nM, mean of 3 replicates, read-out: Normalized production (control=1), Mean",94.4%
same,remaining activity at 0.04 µM,"[2]; MRK-560 40 nM, replicates, read-out: Normalized production (control=1)",92.8%
same,remaining activity at 0.2 µM,"[2]; MRK-560 200 nM, mean of 3 replicates, read-out: Normalized production (control=1), Mean",44.1%
same,remaining activity at 0.2 µM,"[2]; MRK-560 200 nM, replicates, read-out: Normalized production (control=1)",43.5%
same,remaining activity at 1 µM,"[2]; MRK-560 1 μM, mean of 3 replicates, read-out: Normalized production (control=1), Mean",9.52%
same,remaining activity at 1 µM,"[2]; MRK-560 1 μM, replicates, read-out: Normalized production (control=1)",8.72%
same,remaining activity at 10 µM,"[2]; MRK-560 10 μM, mean of 3 replicates, read-out: Normalized production (control=1), Mean",6.39%
same,remaining activity at 10 µM,"[2]; MRK-560 10 μM, replicates, read-out: Normalized production (control=1)",6.67%
same,IC50,"[2]; PS2-complex WT, mean ± SD, n=3",173 ± 24 nM
same,Caculated Aβ40 production,"[2]; MRK-560 2 nM, replicates",178.2729 and 172.6848 and 175.9467
same,raw data from α-Lisa reading,"[2]; MRK-560 2 nM, replicates",27903 and 28403 and 28759
same,Caculated Aβ40 production,"[2]; MRK-560 10 nM, replicates",177.3643 and 172.5675 and 151.3305
same,raw data from α-Lisa reading,"[2]; MRK-560 10 nM, replicates",27885 and 24607 and 28620
same,Caculated Aβ40 production,"[2]; MRK-560 40 nM, replicates",171.4208 and 165.5620 and 168.4662
same,raw data from α-Lisa reading,"[2]; MRK-560 40 nM, replicates",26808 and 27255 and 27709
same,Caculated Aβ40 production,"[2]; MRK-560 200 nM, replicates",82.1115 and 77.5422 and 76.1780
same,raw data from α-Lisa reading,"[2]; MRK-560 200 nM, replicates",12906 and 12685 and 13645
same,Caculated Aβ40 production,"[2]; MRK-560 1 μM, replicates",17.8069 and 15.5539 and 17.5803
same,raw data from α-Lisa reading,"[2]; MRK-560 1 μM, replicates",2685 and 3025 and 3063
same,Caculated Aβ40 production,"[2]; MRK-560 10 μM, replicates",12.9409 and 11.9064 and 9.3762
same,raw data from α-Lisa reading,"[2]; MRK-560 10 μM, replicates",2072 and 1646 and 2246
same,remaining activity at 0.002 µM,"[3]; PS1 WT, MRK-560 2 nM, mean of 3 replicates, read-out: Normalized production (control=1), Mean",101%
same,remaining activity at 0.002 µM,"[3]; PS1 WT, MRK-560 2 nM, replicates, read-out: Normalized production (control=1)",102%
same,remaining activity at 0.01 µM,"[3]; PS1 WT, MRK-560 10 nM, mean of 3 replicates, read-out: Normalized production (control=1), Mean",92.4%
same,remaining activity at 0.01 µM,"[3]; PS1 WT, MRK-560 10 nM, replicates, read-out: Normalized production (control=1)",90.9%
same,remaining activity at 0.04 µM,"[3]; PS1 WT, MRK-560 40 nM, mean of 3 replicates, read-out: Normalized production (control=1), Mean",43.2%
same,remaining activity at 0.04 µM,"[3]; PS1 WT, MRK-560 40 nM, replicates, read-out: Normalized production (control=1)",43.4%
same,remaining activity at 0.2 µM,"[3]; PS1 WT, MRK-560 200 nM, mean of 3 replicates, read-out: Normalized production (control=1), Mean",8.2%
same,remaining activity at 0.2 µM,"[3]; PS1 WT, MRK-560 200 nM, replicates, read-out: Normalized production (control=1)",8.25%
same,remaining activity at 1 µM,"[3]; PS1 WT, MRK-560 1 μM, mean of 3 replicates, read-out: Normalized production (control=1), Mean",0.63%
same,remaining activity at 1 µM,"[3]; PS1 WT, MRK-560 1 μM, replicates, read-out: Normalized production (control=1)",0.63%
same,remaining activity at 10 µM,"[3]; PS1 WT, MRK-560 10 μM, mean of 3 replicates, read-out: Normalized production (control=1), Mean",0.52%
same,remaining activity at 10 µM,"[3]; PS1 WT, MRK-560 10 μM, replicates, read-out: Normalized production (control=1)",0.46%
same,IC50,"[3]; PS1-complex WT, mean ± SD, n=3",33 ± 2 nM
same,Caculated Aβ40 production,[3]; [4],346.0052 and 350.2238 and 339.9166
same,raw data from α-Lisa reading,[3]; [4],53851 and 52412 and 53263
same,Caculated Aβ40 production,[3]; [5],325.7701 and 311.5896 and 312.3355
same,raw data from α-Lisa reading,[3]; [5],48416 and 48522 and 50424
same,Caculated Aβ40 production,[3]; [6],146.9566 and 148.7756 and 148.6084
same,raw data from α-Lisa reading,[3]; [6],24210 and 24184 and 23927
same,Caculated Aβ40 production,[3]; [7],26.7052 and 28.2767 and 29.2852
same,raw data from α-Lisa reading,[3]; [7],4813 and 4981 and 4551
same,Caculated Aβ40 production,[3]; [8],2.1627 and 2.1745 and 2.1272
same,raw data from α-Lisa reading,[3]; [8],430 and 422 and 428
same,Caculated Aβ40 production,[3]; [9],1.8967 and 1.5777 and 1.8849
same,Normalized production (control=1),[3]; [9],0.0055
same,raw data from α-Lisa reading,[3]; [9],329 and 381 and 383
